Test results published in publication PMC3877906, “Polypeptide Modulators of TRPV1 Produce Analgesia without Hyperthermia” (Marine Drugs, 2013).
Entries after “also recorded” stand apart in the source; their conditions may differ.

Experiments:
[1] = tested on: CD-1 mice; details: 0.1 mg/kg, intravenous; ref [15],[16]; cited from earlier work
Experimental: (§1) The hot plate test is a most simple for TRPV1 inhibitor characterization since TRPV1 play significant role in temperature sensation. Effect of APHC1 and APHC3 on thermal nociception at dose 0.1 mg/kg after intramuscular, intraperitoneal and intravenous administration was measured before. […] Here we assessed changes in thermal nociception to a noxious thermal stimuli elicited by different doses of APHC1 and APHC3 to determine minimal effective dose. Intravenous administration ...

[2] = tested on: CD-1 mice; assay: acetic acid-induced writhing (abdominal constriction test of visceral pain); assay type: in vivo, mouse
Experimental: TRPV1 can be activated by low pH stimuli and is therefore involved in pain caused by acidification, which can be measured in the pain behavior model of acetic acid-induced writhing. Intraperitoneal administration of acetic acid provokes a very stereotyped behavior in the mouse. The constriction response is considered the definitive measure of visceral pain intensity. Animals were pretreated with polypeptides 15 min before acetic acid injection.
(§2) All experiments were performed in accordance with the recommendations in the “Principles of Laboratory Animal Care” and after approval by the Animal Care and Use Committee of the Branch of the IBCh RAS (Pushchino, Russia). Adult male CD-1 mice (Animal Breeding Facility Branch of Shemyakin-Ovchinnikov Institute of Bioorganic Chemistry, Russian Academy of Sciences, Pushchino, Russia) weighing 20–25 g were used. Animals were allowed to acclimate in the laboratory for at least five days. Mice were housed at room temperature (23 ± 2 °C) on a 12 h light–dark cycle with food and water available ad libitum. Polypeptides or vehicle was administered intravenously 15 min before testing.
(§3) The significance of the data was determined by analysis of variance (ANOVA) followed by Tukey’s test. Data are presented as mean ± S.E.
Separate groups of mice were injected with 0.6% acetic acid in saline (10 mL∙kg^−1 intraperitoneally (i.p.)). Mice were immediately placed inside transparent glass cylinders, and the number of writhes was recorded for 15 min.

[3] = tested on: CD-1 mice; assay: hot plate test; assay type: in vivo, mouse
Experimental: as §1, with “[…] Both polypeptides reached maximal effect at 0.1 mg/kg.” for “Intravenous administration ...”
as §2, §3
Sensitivity to a thermal stimulus was determined by hind paw withdrawal or licking latency using a Hot-Plate Analgesia Meter (Columbus Instruments, Columbus, OH, USA) at 55 °C.

[4] = tested on: TRPV1; assay type: cell-based, rat; details: for effect on capsaicin-induced TRPV1 response: whole-cell patch clamp, HEK-293
Experimental: Figure 2 Effects of APHC3 on recombinant TRPV1 expressed in HEK-293 cells. (a) Resting current recorded from a TRPV1-positive cell held at −30 mV. […] Straight lines above the recording indicate application of APHC3 (Long line) and capsaicin (Short lines). The cells were stimulated and rinsed by rapid switching of the bath solution between the control solution and solutions containing the indicated compound. (b) Capsaicin responses in control and in the presence of the 300 nM APHC3 peptide. In each case, the control response was calculated as an average of two acid responses recorded just prior to peptide application. Averaged responses recorded in the presence of APHC3 were normalized to averaged control responses. Those are presented as the mean ± s.d. (n = 4). […] (c, d) Cell responses to the acidification of the bath solution from pH 7.4 to pH 5.5 in control and in the presence of the APHC3 applied at different concentrations as indicated. The experimental traces in (c) and in (d, upper trace) illustrate representative responses of EGFP/TRPV1-positive cells. The bottom trace in (d) represents responses of an EGFP/TRPV1-negative cell assayed simultaneously. (e) Acid responses recorded in the presence of APHC3 (90, 160 and 240 nM) normalized to a control response. The data are presented as the mean ± s.d. (n = 5–10). […] In each case, the control response was calculated as an average of the two acid responses recorded just prior to peptide application. The average of the two acid responses recorded after peptide application was calculated and normalized to the control response. Experimental traces in (c, d) were obtained from three different cells. The changes in bath solution pH (continuous lines) and APHC3 applications (thick straight lines) are shown above the fluorescence traces. Cells were stimulated and rinsed by a rapid replacement of the control bath solution with modified bath solution at pH 5.5 with or without APHC3.
HEK-293 cells were cultured in Dulbecco’s modified Eagle’s medium (DMEM) (Life Technologies, Grand Island, NY, USA) containing 10% (vol/vol) fetal bovine serum (Thermo Fisher Scientific, Palm Beach, FL, USA), glutamine (1%) and the antibiotic gentamicin (100 μg/mL) (Life Technologies, Grand Island, NY, USA). The pIRES2-EGFP plasmid harboring rat TRPV1 cDNA was transiently transfected into HEK-293 cells by replacing the growth medium in each well with a transfection mixture, containing 1.6 μg of DNA and 4 μL of Lipofectamine (Life Technologies, Grand Island, NY, USA) in 1 mL of serum-free DMEM. After incubating for 6 h, the transfection mixture was replaced with normal culture medium. Cells were assayed within 48–96 h after transfection.
Ion currents were recorded using an Axopatch 200A amplifier, with a DigiData 1322A interface, and pClamp8 software (Molecular Devices, Downingtown, PA, USA). External solutions were delivered by a gravity-driven perfusion system at a rate of 0.1 mL/s. Generally, the whole-cell patch clamp approach was used with recording pipettes containing (mM): 140 CsCl, 1 MgATP, 10 BAPTA, 10 HEPES-CsOH (pH 7.2). The basic bath solution included the following (mM): 140 NaCl, 5 KCl, 1 MgCl2, 1 CaCl2, 10 HEPES-NaOH (pH 7.4).

[5] = tested on: ASIC3; assay: ASIC3 activity, oocyte electrophysiology or agonist-induced fluorescence readout; assay type: cell-based; details: concentrations of up to 2 μM; data not shown
[6] = tested on: p2X3; assay: p2X3 activity, oocyte electrophysiology or agonist-induced fluorescence readout; assay type: cell-based; details: concentrations of up to 2 μM; data not shown
[7] = 0.1 mg/kg i.v., n = 9, vs saline
[8] = i.v., 15 min before test, 55 °C, n = 9 per group, vs saline

Row | Substance | paw withdrawal latency, hot plate, previous studies [1] | number of writhes, in words [2, 7] | number of writhes, in words ([2]; 0.5 mg/kg i.v.) | paw withdrawal latency, hot plate ([3]; 0.001 mg/kg i.v., data not shown) | antinociception in hot plate test ([3]; 0.01 mg/kg i.v., 55 °C, n = 9) | paw withdrawal latency, hot plate [3, 8] | dose at which maximal effect is reached, hot plate ([3]; i.v., 55 °C, n = 9) | effect on capsaicin-induced TRPV1 response ([4]; 100 nM capsaicin) | agonistic/antagonistic activity at ASIC3 [5] | agonistic/antagonistic activity at p2X3 [6] | inhibition of number of writhes ([2]; 0.1 and 0.5 mg/kg i.v. 15 min before 0.6% acetic acid i.p., n = 9) | inhibition of TRPV1 currents ([4]; 100 nM capsaicin, 300 nM APHC3, whole-cell, held at −30 mV, pH 7.4 bath, four experiments (n = 4)) | inhibitory effect on capsaicin-induced currents ([4]; concentrations more than 300 nM)
1 | APHC1: polypeptide modulator of TRPV1 from sea anemone Heteractis crispa; homologous to BPTI/Kunitz type serine-protease inhibitors; produced recombinantly in E. coli (GSICLEPKVVGPCTAYFRRFYFDSETGKCTVFIYGGCEGNGNNFETLRACRAICRA; left off: TRX, end not stated, cleaved) | significantly prolonged paw withdrawal latency | did not produce a statistically significant effect; also recorded: did not significantly inhibit the response to acetic acid | significantly reduced number of writhes | did not prolong paw withdrawal latency | produced antinociception | Dose dependent inhibition of thermal nociception; also recorded: significantly increased paw withdrawal latency | 0.1 mg/kg | partially blocked the capsaicin-induced response | neither agonistic nor antagonistic activity | neither agonistic nor antagonistic activity |  |  | 
2 | APHC3: polypeptide from Heteractis crispa highly homologous to APHC1, differing in four of 56 amino acids; produced recombinantly in E. coli (GSICLEPKVVGPCTAYFPRFYFNSETGKCTPFIYGGCEGNGNNFETLRACRGICRA; left off: TRX, end not stated, cleaved) | significantly prolonged paw withdrawal latency | significantly reduced the number of writhes |  |  |  | Dose dependent inhibition of thermal nociception; also recorded: significantly increased paw withdrawal latency | 0.1 mg/kg | partially blocked the capsaicin-induced response | neither agonistic nor antagonistic activity | neither agonistic nor antagonistic activity | 50% | ~25% | 25%
